Our source for the Activity, survival and mortality values is ChEMBL document CHEMBL4699526, “Flavonoids with Inhibitory Effects on NLRP3 Inflammasome Activation from Millettia velutina” (J Nat Prod, 2020).

In one data set the test system is THP-1. The experiment in a line: Cytotoxicity against LPS-primed human PMA-differentiated THP-1 cells 2.5 to 5 uM by CytoTox 96 Non-Radioactive assay. The format is cell-based. The settings on record: dose 2.5-5 µM.
Data set [1] in a line: In vivo inhibition of NLRP3 inflammasome activation in C57BL/6 mouse assessed as survival rate at 50 mg/kg, ip pretreated for 1 hr followed by LPS-treatment and measured every 12 hrs for 48 hrs relative to control. It is filed as functional. The settings on record: C57BL/6, ip, time 49 hrs.
The nature of data set [2]: In vivo inhibition of NLRP3 inflammasome activation in C57BL/6 mouse assessed as mortality rate at 50 mg/kg, ip pretreated for 1 hr followed by LPS-treatment and measured every 12 hrs for 48 hrs (reference value: 100%). It is filed as functional. Particulars: C57BL/6, ip, 61 h.

A word on the mortality: it is the share of the test organisms that died.

Consider `COc1c(/C=C/C(=O)c2ccccc2)cc(OC)c2occc12`, for which the Activity entry in the data set with THP-1 was “Non-Toxic”. The survival at 50 mg/kg in data set [1] came out at 100%. The mortality at 50 mg/kg in data set [2] was 24%.
